Test results from patent US20230053941A1, “MICROEMULSIONS WITH DICAMBA SALTS HAVING IMPROVED PROPERTIES” (MONSANTO TECHNOLOGY LLC, priority 2020, published 2023).

Test: Partition coefficient of compound (A) in solvents
Assay type: physicochemical
Conditions: HPLC, approximately 25° C.
Procedure: Experimental procedure for the respective solvent: (1) A solution of 10 g of compound (A) is prepared in 90 g of the respective solvent. (2) An aliquot of 10 g of the solution obtained in step (1) is added to 90 g of water in a glass bottle, which is shaken on a mechanical shaker for 4 hours at ambient temperature (approximately 25° C.). (3) The contents of the glass bottle are permitted to phase separate for 4 days at ambient temperature (approximately 25° C.). (4) Subsamples of the resulting oil and water phases are taken and analyzed by HPLC to determine the concentrations of compound (A) in oil (Co) and water phases (Cw) respectively. The subsamples are typically centrifuged before HPLC analysis to remove traces of organic solvent from the water phase.
A Partition Coefficient, analogous to the Octanol-Water Partition Coefficient, P, is calculated as Co/Cw. The Partition Coefficient is conveniently expressed as a logarithm […].
The ratio of determined concentrations of compound (A) in the solvent phase and the water phase typically is very large. […] In other cases, traces of the organic solvent are found in the water phase, even after centrifugation, so that the apparent concentration of oil-soluble herbicide observed in the water phase is misleadingly high. […]

## CCOC(=O)COc1ncccc1Oc1cc(-n2c(=O)cc(C(F)(F)F)n(C)c2=O)c(F)cc1Cl [Cmp. A, ethyl [3-[2-chloro-4-fluoro-5-(1-methyl-6-trifluoromethyl-2,4-dioxo-1,2,3,4-tetrahydropyrimidin-3-yl)phenoxy]-2-pyridyloxy]acetate]
Acetophenone as organic solvent
  compound (A) in the water phase: undetectable
Aromatic 200 ND as organic solvent
  compound (A) in the water phase: undetectable
